Data taken from article PMC8360061, “Search for the Active Ingredients from a 2‐Aminothiazole DMSO Stock Solution with Antimalarial Activity” (Chemmedchem, 2021).
Where two headings read alike, the source gives them in different places.

Tests used:
PfIspE = PfIspE (Plasmodium falciparum, UniProt Q8I470); test: PfIspE enzymatic assay (coupled to PK/LDH, NADH oxidation at 340 nm); type: biochemical
Procedure: Firstly, we performed a temperature‐dependent decomposition study of compound 1 at 10 mM concentration in DMSO at room temperature (RT), +4 °C and −20 °C (SI, Section 2.3). […] Besides visual inspection of the colour changes of the test sample (see Table 2), the decomposition was monitored by HRMS and NMR spectroscopy. […] Furthermore, all three samples were tested for their inhibitory activity against PfIspE after the incubation period. […] In the IspE assay, the activity of the target enzyme is coupled to the oxidation of NADH (which can be followed spectrophotometrically at 340 nm) via a cascade of the auxiliary enzymes pyruvate kinase and lactate dehydrogenase (PK/LDH).[10] […] Three samples of compound 1 were tested in PK/LDH assay (Table 2).
Another approach to address this issue is to perform the IspE assay with one or several orthologues of PfIspE. […] The IspE assay setup was identical for both Pf and EcIspE orthologs except for the target enzyme used. One of the setup requirements was that the enzymatic activity of the auxiliary enzymes PK/LDH exceeded the activity of the target enzyme IspE not less than a factor of ten.[10] We investigated, if the inhibition of the auxiliary enzymes may substantially influence the IC50 values obtained from the coupled IspE assay.
1.1 General Procedure for Enzymatic Assay
The cloning, expression and purification of Plasmodium falciparum[1] and Escherichia coli[2,3] and their subsequent assays followed the previously reported procedures .[1] In some specified cases, the tested compound was dissolved in methanol or acetonitrile for the assay .
(§1) Due to the nature of the study, some decomposition samples w ere only tested once and thus, for some formal standard error, […]
For the final purified compounds, replicates were measured and standard deviation was calculated at least from two replicates. […]
2.) Decomposition Study Procedure
All reagents and solvents were of commercial quality and used without further purification.

[1] = system: Plasmodium falciparum drug-sensitive NF54; test: Antimalarial assay, [3H]hypoxanthine incorporation; type: cell-based; details: for IC50: Plasmodium falciparum, read-out: PfNF54 IC50
Procedure: as §1
For the final purified compounds, replicates were measured and standard deviation was calculated at least from two replicates.
1.2 General Procedure for Antimalarial Assay
Plasmodium falciparum drug-sensitive NF54 (airport strain from The Netherlands, provided by F. Hoffmann-La Roche Ltd) was cultivated in a variation of the medium consisting of RPMI 1640 supplemented with 0.5% ALBUMAX® II, 25 mM Hepes, 25 mM NaHCO3 (pH 7.3), 0.36 mM hypoxanthine, and 100 μg/mL neomycin, as previously described.[4,5] Human erythrocytes served as host cells.
Cultures were maintained in an atmosphere of 3% O2, 4% CO2, and 93% N2 in humidified modular chambers at 37 °C. Compounds were dissolved in MeOH (10 mM), diluted in hypoxanthine-free culture medium and titrated in duplicates over a 64-fold range in 96 well plates. Infected erythrocytes (1.25% final hematocrit and 0.3% final parasitemia) were added into the wells. After 48 h incubation, 0.25 μCi of [3H]hypoxanthine was added per well and plates were incubated for an additional 24 h. Parasites were harvested onto glass-fiber filters and radioactivity was counted using a Betaplate liquid scintillation counter (Wallac, Zurich). Chloroquine […]
The results were recorded and expressed as a percentage of the untreated controls. Fifty percent inhibitory concentrations (IC50) were estimated by linear interpolation.[6] […]

[2] = fresh batch, freshly prepared stock solution

Sequence of PfIspE (Q8I470 entry or part of it): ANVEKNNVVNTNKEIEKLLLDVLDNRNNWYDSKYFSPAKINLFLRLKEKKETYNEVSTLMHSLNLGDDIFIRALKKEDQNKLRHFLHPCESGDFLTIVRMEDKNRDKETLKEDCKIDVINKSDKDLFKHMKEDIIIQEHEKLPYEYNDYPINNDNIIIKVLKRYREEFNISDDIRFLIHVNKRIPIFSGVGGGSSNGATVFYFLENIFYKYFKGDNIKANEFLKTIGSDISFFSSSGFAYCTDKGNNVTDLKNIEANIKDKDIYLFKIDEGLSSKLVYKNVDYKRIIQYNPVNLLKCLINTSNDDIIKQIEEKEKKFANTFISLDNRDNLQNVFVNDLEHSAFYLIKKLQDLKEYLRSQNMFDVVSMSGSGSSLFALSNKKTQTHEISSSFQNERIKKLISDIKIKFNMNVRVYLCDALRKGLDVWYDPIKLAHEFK

CCn1c(C)cc(-c2csc(Nc3ccccc3C(F)(F)F)n2)c1C [Compound 1]
IC50 (PfIspE; 10 mM DMSO stock stored at +4 °C, measured after 3 months): 16 ± 7 µM | IC50 (PfIspE; 10 mM DMSO stock stored at RT, measured after 3 months): 12 ± 4 µM | IC50 (PfIspE; 10 mM DMSO stock stored at −20 °C, measured after 3 months): > 500 µM | IC50 (PfIspE; 10 mM stock in ACN at RT, 0 days of incubation): > 500 µM | IC50 (PfIspE; 10 mM stock in ACN at RT, 5 days of incubation): > 500 µM | IC50 (PfIspE; 10 mM stock in ACN at RT, 7 days of incubation): > 500 µM | IC50 (PfIspE; 10 mM stock in ACN at RT, 9 days of incubation): > 500 µM | IC50 (PfIspE; 10 mM stock in ACN at RT, 12 days of incubation): > 500 µM | IC50 (PfIspE; 10 mM stock in ACN at RT, 14 days of incubation): > 500 µM | IC50 (PfIspE; 10 mM stock in ACN at RT, 16 days of incubation): > 500 µM | IC50 (PfIspE; 10 mM stock in DMSO at RT, 0 days of incubation): > 500 µM | IC50 (PfIspE; 10 mM stock in DMSO at RT, 5 days of incubation): 19 ± 7 µM | IC50 (PfIspE; 10 mM stock in DMSO at RT, 7 days of incubation): 24 ± 9 µM | IC50 (PfIspE; 10 mM stock in DMSO at RT, 9 days of incubation): 10 ± 4 µM | IC50 (PfIspE; 10 mM stock in DMSO at RT, 12 days of incubation): 1 ± 1 µM | IC50 (PfIspE; 10 mM stock in DMSO at RT, 14 days of incubation): 10 ± 4 µM | IC50 (PfIspE; 10 mM stock in DMSO at RT, 16 days of incubation): 11 ± 4 µM | IC50 (PfIspE; 10 mM stock in MeOH at RT, 0 days of incubation): > 500 µM | IC50 (PfIspE; 10 mM stock in MeOH at RT, 5 days of incubation): > 500 µM | IC50 (PfIspE; 10 mM stock in MeOH at RT, 7 days of incubation): > 500 µM | IC50 (PfIspE; 10 mM stock in MeOH at RT, 9 days of incubation): > 500 µM | IC50 (PfIspE; 10 mM stock in MeOH at RT, 12 days of incubation): > 500 µM | IC50 (PfIspE; 10 mM stock in MeOH at RT, 14 days of incubation): > 500 µM | IC50 (PfIspE; 10 mM stock in MeOH at RT, 16 days of incubation): > 500 µM | IC50 (PfIspE; analytical sample, DMSO at RT, 0 days of incubation, dissolved in methanol shortly before the assay): > 500 µM | IC50 (PfIspE; analytical sample, DMSO at RT, 1 day of incubation, dissolved in methanol shortly before the assay): > 500 µM | IC50 (PfIspE; analytical sample, DMSO at RT, 2 days of incubation, dissolved in methanol shortly before the assay): > 500 µM | IC50 (PfIspE; analytical sample, DMSO at RT, 3 days of incubation, dissolved in methanol shortly before the assay): 486 ± 20 µM | IC50 (PfIspE; analytical sample, DMSO at RT, 4 days of incubation, dissolved in methanol shortly before the assay): 99 ± 23 µM | IC50 (PfIspE; fractions of second purification (DMSO, RT, five days), dissolved in ACN): > 1370 µM | IC50 (PfIspE; fractions of second purification (DMSO, RT, five days), dissolved in MeOH): > 1370 µM | IC50 (PfIspE; [2]): > 500 µM | PfIspE IC50 (PfIspE; [2]): no activity | IC50 (PfIspE; freshly dissolved compound, in methanol shortly before the assay (Table 4 footnote b)): > 500 µM | IC50 (PfIspE; old batch (decomposed DMSO stock)): 8 ± 2.8 µM | IC50 (PfIspE; old decomposed sample, control run at the same time as the temperature study): 10 ± 3 µM | IC50 ([1]; NF54, 48 h, analytical sample, DMSO at RT, 2 days of incubation, dissolved in methanol shortly before the assay): 3.5 ± 0.3 µM | IC50 ([1]; NF54, 96 h, analytical sample, DMSO at RT, 4 days of incubation, dissolved in methanol shortly before the assay): 2.7 ± 0.3 µM | IC50 ([1]; NF54, fresh batch): 7.3 ± 0.8 µM | IC50 ([1]; NF54, old batch (decomposed DMSO stock)): 0.43 ± 0.01 µM | reduction in activity against PfNF54, fresh batch vs old batch ([1]; fresh batch compared with old decomposed batch): 17 fold
